pIC50: −log10 of the molar value. Read-outs that look alike come from different tables or passages of the source.
How the values were obtained:
[1] = ADME tests: liver microsome metabolic stability and direct inhibition test; assay type: in vitro ADME; details: metabolic stability, direct inhibition test
Description: (1) Metabolic stability test: 150 μL system of liver microsome (final concentration 0.5 mg/mL) was used for metabolic stability incubation, the system contained NADPH (final concentration 1 mM), 1 μM test compound and positive control Midazolam or negative control Atenolol, then the reaction was terminated with Tinidazole-containing acetonitrile at 0 min, 5 min, 10 min and 30 min respectively, and the mixtures were vortexed for 10 minutes and centrifuged for 10 minutes at 15000 rmp, 50 μL of the supernatants were added into 96-well plate for injection. The metabolic stability of the compounds was calculated by measuring the relative reduction of the original drug.
(2) Direct inhibition test (DI test): Direct inhibition incubation was carried out with 100 μL system of human liver microsome (final concentration 0.2 mg/mL), the system containing NADPH (final concentration 1 mM), 10 μM compound, positive inhibitor cocktail (Ketoconazole 10 μM, Quinidine 10 μM, Sulfaphenazolum 100 μM, α-Naphthoflavone 10 μM, Tranylcypromine 1000 μM), negative control (BPS containing 0.1% DMSO) and mixed probe substrates (Midazolam 10 μM, Testosterone 100 μM, Dextromethorphan […], Diclofenac 20 μM, Phenacetin 100 μM, Mephenytoin 100 μM) was incubated for 20 minutes and then the reaction was terminated. The relative activity of enzymes was calculated by measuring the relative production of metabolites.

[2] = system: EGFR, VEGFR, PDGFR, FGFR, RET, MET, Src, Lyn, Syk, MEK, CDK, RA, ROS; assay: Inhibitory activities on different kinases (selectivity); assay type: biochemical; details: versus different kinases
Description: The inhibitory activities of the compounds of the present disclosure on different kinases such as EGFR, VEGFR, PDGFR, FGFR, RET, MET, Src, Lyn, Syk, MEK, CDK, RA, ROS, etc., were also determined.

FGFR4 = FGFR4 (Homo sapiens (Human), UniProt P22455); assay: Inhibitory activity on kinase FGFR4 (Caliper mobility shift); assay type: biochemical
Sequence of FGFR4 (P22455 22-802): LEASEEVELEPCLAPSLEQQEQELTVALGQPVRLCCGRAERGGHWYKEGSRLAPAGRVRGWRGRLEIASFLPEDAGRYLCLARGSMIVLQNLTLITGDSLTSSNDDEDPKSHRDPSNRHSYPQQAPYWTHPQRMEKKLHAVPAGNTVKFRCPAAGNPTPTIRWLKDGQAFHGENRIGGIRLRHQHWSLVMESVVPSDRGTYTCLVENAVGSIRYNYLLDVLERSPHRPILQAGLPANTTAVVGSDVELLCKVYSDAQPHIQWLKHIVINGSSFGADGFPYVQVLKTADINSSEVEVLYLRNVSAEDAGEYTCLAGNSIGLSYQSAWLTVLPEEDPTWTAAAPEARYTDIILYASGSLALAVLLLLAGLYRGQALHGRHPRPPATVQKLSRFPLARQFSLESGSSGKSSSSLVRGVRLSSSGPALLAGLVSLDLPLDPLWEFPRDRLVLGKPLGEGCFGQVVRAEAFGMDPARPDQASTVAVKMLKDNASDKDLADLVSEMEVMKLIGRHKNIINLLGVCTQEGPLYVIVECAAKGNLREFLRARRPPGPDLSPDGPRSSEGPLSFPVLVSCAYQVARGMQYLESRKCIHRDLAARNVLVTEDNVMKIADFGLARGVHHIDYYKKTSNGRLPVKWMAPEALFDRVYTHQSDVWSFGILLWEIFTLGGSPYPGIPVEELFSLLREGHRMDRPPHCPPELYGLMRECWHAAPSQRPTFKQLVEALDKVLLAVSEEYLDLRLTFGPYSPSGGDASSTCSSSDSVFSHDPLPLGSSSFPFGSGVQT
Description: (1). Preparation of 1×Kinase buffer; (2) Preparation of the gradient concentrations of the compounds: the concentration of the compounds to be tested started from 10 μM, which was 3-fold diluted to prepare 10 dilutions, and then tested in duplicated wells. The compounds were 100-fold serially diluted into 10 dilutions with different final concentrations in 96-well plates, each of which was further diluted with 1×Kinase buffer to prepare an intermediate dilution having a concentration of 5 times the final concentration; (3) adding 5 μL of each of the prepared compound solution into the compound wells of 384-well plates, and each concentration set single well; adding 5 μL of 5% DMSO into negative control wells and positive control wells respectively; (4) preparing a kinase solution having a concentration of 2.5 times the final concentration with 1×kinase buffer; (5) adding 10 μL of kinase solution at a concentration of 2.5 times the final concentration into the compound wells and the positive control wells respectively; and adding 10 μL of 1×Kinase buffer into the negative control wells; (6) centrifuging at 1000 rpm for 30 seconds, and incubating at room temperature for 10 minutes after shaking and mixing evenly; (7) preparing a mixed solution of ATP and Kinase substrate 22 having a concentration of 2.5 times the final concentration with 1×Kinase Buffer; (8) adding 10 μL of the mixed solution of ATP and substrate at a concentration of 2.5 times the final concentration to initiate the reaction; (9) Centrifuging the 384-well plates at 1000 rpm for 30 seconds, and incubating at 28° C. for corresponding time respectively after shaking and mixing; (10) adding 30 μL of stop detection solution to stop the kinase reaction, centrifuging at 1000 rpm for 30 seconds, and shaking and mixing the mixture evenly; (11) reading the conversion rate by Caliper Ezreader II. The dose-effect curve was fitted by the log (inhibitor) vs. response-variable slope of GraphPad Prism 5 with the log value of concentration as the X axis and the percentage inhibition rate as the Y axis, then the IC50 value of each compound on the enzyme activity was obtained.

[3] = Pharmacokinetics in rats or mice after intragastric and intravenous administration; assay type: in vivo, SD rats or BALB/c mice; details: iv 3 mg/kg, intragastric 10 mg/kg
Description: (3) LC/MS/MS method was used to measure the drug concentration in plasma at different time points after the embodiment compounds were administered to the rats or mice by intragastric administration and intravenous injection respectively, so as to study the pharmacokinetic behavior of the compounds of the present disclosure in rats or mice and evaluate the pharmacokinetic characteristics thereof. […]

Hep3B cells = assay: Hep3B cell proliferation (CellTiter-Glo, 72 hours); assay type: cell-based; details: Homo sapiens, Hep3B
Description: 1. Test method: inoculating Hep3B cells (ATCC) in logarithmic growth phase at an appropriate density in a 96-well culture plate, with 100 μL per well. After overnight culture, different concentrations of compounds were added to stay for 72 hours, and menstruum control group (negative control) was set, and the incubation was performed under the condition of 5% CO2 at 37° C. Adding 10 mM compound stock solution to the cells, after the cells were incubated with the compounds for 72 hours, the effects of the compounds on cell proliferation were determined by CellTiter-Glo (Promega) method. 30 μL CTG reagent was added to each well and the resulting mixtures were placed in a 37° C. incubator for 2-4 hours. Then the plate was read by a full-wavelength microplate enzyme reader Envision at a […].
The inhibition rates (%) of the compounds on tumor cell growth were calculated by the following formula: inhibition rate (%)=(OD negative control well−OD administration well)/OD negative control well×100%. IC50 values were obtained by four parameters regression using Graphpad Prism 5 software.

C=CC(=O)N1CCN(CCCc2cn3c(n2)c(-c2c(Cl)c(OC)cc(OC)c2Cl)cc2cnc(NC)nc23)CC1 [Embodiment 3, 1-(4-(3-(6-(2,6-dichloro-3,5-dimethoxyaniline)-2-(methylamine)imidazo[1′,2′:1,6]pyrido[2,3-d]pyrimidin-8-yl)propyl)piperazine-1-yl)prop-2-en-1-one]
ADME properties [1]: better ADME properties | kinase selectivity [2]: greater than 100 times | pIC50 (FGFR4; read-out: FGFR4 IC50): > 7.70 | pIC50 (FGFR4; read-out: IC50 of inhibitory activity on FGFR4): > 9.00 | absorption and metabolism properties in rats and mice [3]: good absorption and metabolism properties in rats and mice | pIC50 (Hep3B cells; read-out: Hep3B IC50): > 7.70 | pIC50 (Hep3B cells; read-out: Hep3B cells inhibitory activity IC50): > 8.00

From patent publication US11267815B2, “Class of amino-substituted nitrogen-containing fused ring compounds, preparation method therefor, and use thereof” (SHANGHAI RINGENE BIOPHARMA CO., LTD., priority 2017, dated 2022)
